Reference: US20100222217A1, “Fungicidal N-[2-(Haloalkoxy)Phenyl]Heteroarylcarboxamides” (priority 2005, published 2010)

Test system: Alternaria solani
Test: Activity against early blight on tomatoes caused by Alternaria solani
Type: in vivo
Conditions: 250 ppm, tomato plants, protective spray, assessed after 5 days; untreated plants 90% infected
Procedure: The active compounds were separately or jointly prepared as a stock solution comprising 25 mg of active compound which was made up to 10 ml using a mixture of acetone and/or dimethylsulfoxide and the emulsifier Uniperol® EL (wetting agent having emulsifying and dispersing action based on ethoxylated alkylphenols) in a volume ratio of solvent/emulsifier of 99 to 1. The mixture was then made up with water to 100 ml. This stock solution was diluted with the solvent/emulsifier/water mixture described to the desired concentration of active compounds.
Leaves of potted tomato plants of the cultivar “Goldene Königin” were sprayed to runoff point with an aqueous suspension having the concentration of active compounds stated below. The next day, the leaves were infected with an aqueous spore suspension of Alternaria solani in a 2% biomalt solution having a density of 0.17×10^6 spores/ml. The plants were then placed in a water vapor-saturated chamber at temperatures between 20 and 22° C. After 5 days, the disease on the untreated, but infected control plants had developed to such an extent that the infection could be determined visually in %.

SMILES | infection [%]
Cc1nn(C)cc1C(=O)Nc1ccccc1OC(F)(F)C(F)F [N-[2-(1,1,2,2-tetrafluoroethoxy)phenyl]-1,3-dimethylpyrazol-4-yl-carboxamide] | 60

Test system: not given
Test: not given
Conditions: not given

melting point [°C] | SMILES
70 to 71 | Cc1nc(C(F)(F)F)c(C(=O)Nc2ccccc2OC(F)(F)C(F)C(F)(F)F)s1 (stereo not drawn) [Compound I-8, N-[2-(1,1,2,3,3,3-hexafluoropropoxy)phenyl]-2-methyl-4-trifluoromethylthiazole-5-carboxamide]
89 to 92 | Cc1nc(C(F)F)c(C(=O)Nc2ccccc2OC(F)(F)C(F)C(F)(F)F)s1 (stereo not drawn) [Compound I-11, N-[2-(1,1,2,3,3,3-hexafluoropropoxy)phenyl]-4-difluoromethyl-2-methylthiazole-5-carboxamide]
91 to 93 | Cn1cc(C(=O)Nc2ccccc2OC(F)(F)C(F)C(F)(F)F)c(C(F)(F)F)n1 (stereo not drawn) [Compound I-1, N-[2-(1,1,2,3,3,3-Hexafluoropropoxy)phenyl]-1-methyl-3-trifluoromethyl-1H-pyrazole-4-carboxamide]
118 to 120 | Cc1nc(C(F)(F)F)c(C(=O)Nc2ccccc2OC(F)(F)C(F)F)s1 [Compound I-6, N-[2-(1,1,2,2-tetrafluoroethoxy)phenyl]-2-methyl-4-trifluoromethylthiazol-5-yl-carboxamide]
110 to 111 | Cn1cc(C(=O)Nc2ccccc2OC(F)(F)C(F)Cl)c(C(F)F)n1 (stereo not drawn) [Compound I-4, N-[2-(2-chloro-1,1,2-trifluoroethoxy)phenyl]-3-difluoromethyl-1-methyl-1H-pyrazole-4-carboxamide]
80 to 81 | Cc1nc(C(F)(F)F)c(C(=O)Nc2ccccc2OC(F)(F)C(F)Cl)s1 (stereo not drawn) [Compound I-9, N-[2-(2-chloro-1,1,2-trifluoroethoxy)phenyl]-2-methyl-4-trifluoromethylthiazole-5-carboxamide]
73 to 76 | O=C(Nc1ccccc1OC(F)(F)C(F)Cl)c1cccnc1Cl (stereo not drawn) [Compound I-14, N-[2-(2-chloro-1,1,2-trifluoroethoxy)phenyl]-2-chloronicotinamide]
94 to 95 | Cn1cc(C(=O)Nc2ccccc2OC(F)(F)C(F)Cl)c(C(F)(F)F)n1 (stereo not drawn) [Compound I-3, N-[2-(2-Chloro-1,1,2-trifluoroethoxy)phenyl]-1-methyl-3-trifluoromethyl-1H-pyrazole-4-carboxamide]
134 to 135 | Cc1nc(C)c(C(=O)Nc2ccccc2OC(F)(F)C(F)F)s1 [Compound I-7, N-[2-(1,1,2,2-tetrafluoroethoxy)phenyl]-2,4-dimethylthiazol-5-ylcarboxamide]
126 to 128 | O=C(Nc1ccccc1OC(F)(F)C(F)F)c1cccnc1Cl [Compound I-12, N-[2-(1,1,2,2-tetrafluoroethoxy)phenyl]-2-chloronicotinamide]
85 to 91 | O=C(Nc1ccccc1OC(F)(F)C(F)C(F)(F)F)c1cccnc1Cl (stereo not drawn) [Compound I-13, N-[2-(1,1,2,3,3,3-hexafluoropropoxy)phenyl]-2-chloronicotinamide]
117 to 119 | Cn1cc(C(=O)Nc2ccccc2OC(F)(F)C(F)F)c(C(F)F)n1 [Compound I-5, N-[2-(1,1,2,2-tetrafluoroethoxy)phenyl]-3-difluoromethyl-1-methyl-1H-pyrazole-4-carboxamide]

Test system: Erysiphe [syn. Blumeria] graminis forma specialis. tritici
Test: Activity against mildew of wheat caused by Erysiphe [syn. Blumeria] graminis forma specialis. tritici
Type: in vivo
Conditions: 63 ppm, wheat seedlings, protective spray, assessed after 7 days; untreated plants 90% infected
Procedure: The active compounds were separately or jointly prepared as a stock solution comprising 25 mg of active compound which was made up to 10 ml using a mixture of acetone and/or dimethylsulfoxide and the emulsifier Uniperol® EL (wetting agent having emulsifying and dispersing action based on ethoxylated alkylphenols) in a volume ratio of solvent/emulsifier of 99 to 1. The mixture was then made up with water to 100 ml. This stock solution was diluted with the solvent/emulsifier/water mixture described to the desired concentration of active compounds. Leaves of potted wheat seedlings were sprayed to runoff point with an aqueous suspension having the active compound concentration stated below. The suspension was prepared as described above. 24 hours after the spray coating had dried on, the plants were dusted with spores of mildew of wheat (Erysiphe [syn. Blumeria] graminis forma specialis. tritici). The test plants were then placed in a greenhouse at temperatures between 20 and 24° C. and at 60 to 90% relative atmospheric humidity. After 7 days, the extent of the mildew development was determined visually in % infection of the entire leaf area.

SMILES | infection [%]
Cn1cc(C(=O)Nc2ccccc2OC(F)(F)C(F)F)c(C(F)(F)F)n1 [N-[2-(1,1,2,2-tetrafluoroethoxy)phenyl]-3-trifluormethyl-1-methylpyrazol-4-yl-carboxamide] | 70

Same assay, conditions: 250 ppm, wheat seedlings, protective spray, assessed after 7 days; untreated plants 80% infected

SMILES | infection [%]
Cn1cc(C(=O)Nc2ccccc2OC(F)(F)C(F)F)c(C(F)(F)F)n1 [N-[2-(1,1,2,2-tetrafluoroethoxy)phenyl]-3-trifluormethyl-1-methylpyrazol-4-yl-carboxamide] | 40
